{"source": "ChEMBL document CHEMBL3826922", "about": "“Synthesis 4-[2-(2-mercapto-4-oxo-4H-quinazolin-3-yl)-ethyl]-benzenesulfonamides with subnanomolar carbonic anhydrase II and XII inhibitory properties” (Bioorg Med Chem, 2016)", "key": {"Carbonic anhydrase 1": {"biological_target": "Carbonic anhydrase 1 (Homo sapiens, UniProt P00915)", "sequence (P00915 whole entry)": "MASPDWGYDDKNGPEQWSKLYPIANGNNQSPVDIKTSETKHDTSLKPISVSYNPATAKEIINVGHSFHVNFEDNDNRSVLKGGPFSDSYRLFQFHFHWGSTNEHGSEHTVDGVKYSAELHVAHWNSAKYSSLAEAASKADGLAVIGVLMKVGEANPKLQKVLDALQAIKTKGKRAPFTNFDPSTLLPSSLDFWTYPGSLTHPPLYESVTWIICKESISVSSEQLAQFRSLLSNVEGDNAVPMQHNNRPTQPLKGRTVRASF", "experiment": "Inhibition of human CA1 preincubated for 15 mins by stopped flow CO2 hydration assay"}, "Carbonic anhydrase 12": {"biological_target": "Carbonic anhydrase 12 (Homo sapiens, UniProt O43570)", "sequence (O43570 whole entry)": "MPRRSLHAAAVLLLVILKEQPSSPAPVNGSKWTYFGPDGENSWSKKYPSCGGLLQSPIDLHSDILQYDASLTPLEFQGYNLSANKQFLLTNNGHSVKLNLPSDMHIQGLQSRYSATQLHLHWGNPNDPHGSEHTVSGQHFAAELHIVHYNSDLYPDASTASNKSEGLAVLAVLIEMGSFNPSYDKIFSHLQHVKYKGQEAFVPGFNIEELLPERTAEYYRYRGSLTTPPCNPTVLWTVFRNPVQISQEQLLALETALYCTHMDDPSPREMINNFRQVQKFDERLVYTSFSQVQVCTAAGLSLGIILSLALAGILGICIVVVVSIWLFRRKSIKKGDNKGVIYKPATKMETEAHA", "experiment": "Inhibition of human CA12 preincubated for 15 mins by stopped flow CO2 hydration assay"}, "Carbonic anhydrase 2": {"biological_target": "Carbonic anhydrase 2 (Homo sapiens, UniProt P00918)", "experiment": "Inhibition of human CA2 preincubated for 15 mins by stopped flow CO2 hydration assay"}}}
{"smiles": "NS(=O)(=O)c1ccc(CCn2c(=S)[nH]c3ccc(F)cc3c2=O)cc1", "values": [{"measurement": "Ki", "setting": "Carbonic anhydrase 1", "value": 212, "unit": "nM"}, {"measurement": "Ki", "setting": "Carbonic anhydrase 12", "value": 0.62, "unit": "nM"}, {"measurement": "Ki", "setting": "Carbonic anhydrase 2", "value": 12.4, "unit": "nM"}]}
